Assay results: ChEMBL document CHEMBL1146648, “Development of l-3-aminotyrosine suitably protected for the synthesis of a novel nonphosphorylated hexapeptide with low-nanomolar Grb2-SH2 domain-binding affinity” (Bioorg Med Chem Lett, 2004)
pIC50: −log10 of the molar value. Where a SMILES comes first, the peptide text is derived from it. Bridges are numbered along the chain shown (N, C = ends). [ ]: non-standard residue; d: D form. Tyr(3-NH2) = Nc1cc(C[C@H](N)C(=O)O)ccc1O; Gla = N[C@@H](CC(C(=O)O)C(=O)O)C(=O)O; Aad = N[C@@H](CCCC(=O)O)C(=O)O; Ac6c = NC1(C(=O)O)CCCCC1; Ava = NCCCCC(=O)O

Target: Growth factor receptor-bound protein 2 (Homo sapiens, UniProt P62993)
Assay: Competitive binding affinity against Growth factor receptor bound protein 2 was assessed using SHC(pTyr-317) phospopeptide in biacore surface plasmon resonance (SPR) method

Chain of Growth factor receptor-bound protein 2 (P62993 whole entry): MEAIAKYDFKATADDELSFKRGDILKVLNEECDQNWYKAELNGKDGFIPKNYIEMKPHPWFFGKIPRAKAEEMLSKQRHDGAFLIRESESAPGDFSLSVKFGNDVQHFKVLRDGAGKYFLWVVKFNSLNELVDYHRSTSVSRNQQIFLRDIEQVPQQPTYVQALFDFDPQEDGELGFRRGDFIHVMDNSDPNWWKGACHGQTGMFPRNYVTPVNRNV

| SMILES | pIC50 |
| --- | --- |
| CC(C)C[C@@H]1NC(=O)[C@H](CC(C(=O)O)C(=O)O)NC(=O)C[S+]([O-])C[C@H](C(N)=O)NC(=O)CCCCNC(=O)[C@H](C(C)C)NC(=O)[C@H](CC(N)=O)NC(=O)C2(CCCCC2)NC(=O)[C@H](Cc2ccc(O)c(N)c2)NC1=O (stereo partly specified) | 5.97 |
| CC(C)C[C@@H]1NC(=O)[C@H](CCCC(=O)O)NC(=O)C[S+]([O-])C[C@@H](C(N)=O)NC(=O)CCCCNC(=O)[C@H](C(C)C)NC(=O)[C@H](CC(N)=O)NC(=O)C2(CCCCC2)NC(=O)[C@H](Cc2ccc(O)cc2)NC1=O (stereo partly specified) | 5.01 |
| CC(C)C[C@@H]1NC(=O)[C@H](CCCC(=O)O)NC(=O)C[S+]([O-])C[C@H](C(N)=O)NC(=O)CCCCNC(=O)[C@H](C(C)C)NC(=O)[C@H](CC(N)=O)NC(=O)C2(CCCCC2)NC(=O)[C@H](Cc2ccc(O)cc2)NC1=O (stereo partly specified) | 4.07 |
| CC(C)C[C@@H]1NC(=O)[C@H](CC(C(=O)O)C(=O)O)NC(=O)C[S+]([O-])C[C@@H](C(N)=O)NC(=O)CCCCNC(=O)[C@H](C(C)C)NC(=O)[C@H](CC(N)=O)NC(=O)C2(CCCCC2)NC(=O)[C@H](Cc2ccc(O)c(N)c2)NC1=O (stereo partly specified) | 7.30 |
| CC(C)C[C@@H]1NC(=O)[C@H](CCCC(=O)O)NC(=O)CSC[C@@H](C(N)=O)NC(=O)CCCCNC(=O)[C@H](C(C)C)NC(=O)[C@H](CC(N)=O)NC(=O)C2(CCCCC2)NC(=O)[C@H](Cc2ccc(O)cc2)NC1=O ({CH2CO}-[Aad]LY[Ac6c]NV[Ava]C-NH2; thioether N-8) | 4.94 |
| CC(C)C[C@@H]1NC(=O)[C@H](CC(C(=O)O)C(=O)O)NC(=O)CSC[C@@H](C(N)=O)NC(=O)CCCCNC(=O)[C@H](C(C)C)NC(=O)[C@H](CC(N)=O)NC(=O)C2(CCCCC2)NC(=O)[C@H](Cc2ccc(O)c(N)c2)NC1=O ({CH2CO}-[Gla]L[Tyr(3-NH2)][Ac6c]NV[Ava]C-NH2; thioether N-8) | 6.80 |
